Results published in patent US9040568B2, “Pharmaceutical compositions for the treatment of pain” (AbbVie Inc., priority 2009, dated 2015).

Tests used:
Format in all cases: in vivo, rat
[1] = test system: MIA-induced osteoarthritis pain; experiment: Monoiodoacetate-induced osteoarthritis (MIA-OA) pain model, compressive grip force
Protocol: Under light isoflurane (2-3%) anesthesia, MIA (3 mg) was unilateral intra-articularly injected into right hind knee joint in a volume of 50 μl as previously described (Chandran et al., 2009). Compressive grip force (CGF) was determined 20 days following MIA injection by recording the maximum compressive force exerted on the hind limb strain gauge setup, using a commercially available grip force measurement system (Columbus Instruments, Columbus, Ohio). In this assay, each rat was gently restrained and the hind paw was allowed to grasp the wire mesh frame (10×12 cm) attached to the strain gauge. The animal was then moved in a rostral-to-caudal direction until the grip was broken, and CGF reading expressed as g was recorded. Each rat was sequentially tested twice at approximately 2-3 min intervals to obtain an average raw CGF. To avoid confounding factor of body weight, CGF was converted into CGFbody following the formula: g (CGF)÷kg (body weight). CGF was assessed 30 min following i.p. compound administration. The vehicle control group was taken as 0%, whereas the age-matched naïve group was described as 100% (normal), the analgesic efficacy was expressed as the percentage return of CGFbody to normalcy vs. the naïve group: [(treatment-vehicle)/(naïve-vehicle)]×100%. Experiments were performed in animals 20 days following MIA knee joint injection, since this is the time point that maximal reduction of grip force observed in the time-course experiment (Chandran et al., 2009).

[2] = test system: carrageenan-induced acute inflammatory thermal hyperalgesia; experiment: Carrageenan model of acute inflammatory thermal hyperalgesia; settings: for increase of the PWLcontra: vs vehicle
Protocol: Acute inflammatory thermal hyperalgesia were induced by injecting 100 μl of a 1% solution of λ-carrageenan (Sigma Chemical Co., St. Louis, Mo.) in physiological saline into the plantar surface of the right hind paw. Thermal hyperalgesia measured as paw withdrawal latency (PWL) was determined, using a commercially available thermal paw stimulator (UARDG, University of California, San Diego, Calif.) as described by Hargreaves et al. (Hargreaves et al., 1988). Rats were placed into individual plastic cubicles mounted on a glass surface maintained at 30° C., where a thermal stimulus, in the form of radiant heat emitted from a focused projection bulb, was then applied to the plantar surface of each hind paw. The stimulus current was maintained at 4.50±0.05 amp, and the maximum time of exposure was set at 20.48 s to limit possible tissue damage. The elapsed time until a brisk withdrawal of the hind paw from the thermal stimulus was recorded automatically using photodiode motion sensors. The right (carrageenan injected paw) and left hind paw of each rat was tested in 3 sequential trials at approximately 5 min intervals. Carrageenan-induced thermal hyperalgesia of paw withdrawal latency (PWLcarra) was calculated as the mean of the two shortest latencies. PWL was assessed 30 min (2 h after carrageenan injection) following i.p. compound administration. PWLcarra of the vehicle control group was taken as 0%, whereas the PWL of the contralateral side (PWLcontra) of the vehicle control group was taken as 100%, the analgesic efficacy was expressed as the percentage return of PWLcarra to PWLcontra.

[3] = test system: post-operative pain (skin incision of the hind paw); experiment: Incision model of postoperative pain (mechanical allodynia, von Frey)
Protocol: Paw incision was performed under isoflurane (2-3%) anesthesia and followed procedures previously described (Brennan et al., 1996). Briefly, the plantar aspect of the left hindpaw was placed through a hole in a sterile plastic drape. A 1-cm longitudinal incision was made through the skin and fascia, starting 0.5 cm from the proximal edge of the heel and extending towards the toes, the plantar muscle was elevated and injured longitudinally leaving the muscle origin and insertion points intact. After hemostasis with gentle pressure, the skin was apposed with 2 mattress sutures of 5-0 nylon. Mechanical allodynia was measured using calibrated von Frey filaments (Stoelting, Wood Dale, Ill.) as previously described (Chaplan et al., 1994) in all animals 2 h following surgery. Rats were placed into inverted individual plastic containers (20×12.5×20 cm) on top of a suspended wire mesh grid, and acclimated to the test chambers for 20 min. The von Frey filaments were presented perpendicularly to the plantar surface pointing towards the medial side of the incision (Brennan et al., 1996), and then held in this position for approximately 8 s with enough force to cause a slight bend in the filament. Positive responses included an abrupt withdrawal of the hind paw from the stimulus, or flinching behavior immediately following removal of the stimulus. A 50% paw withdrawal threshold (PWT) was determined using an up-down procedure (Dixon, 1980). Mechanical allodynia was assessed 30 min following i.p. compound administration.

[4] = Compound A 10 nmol/kg combined with Compound 1 (3.5 μmol/kg)
[5] = co-administration of Compound 1
[6] = Compound A 30 nmol/kg combined with Compound 1 (3.5 μmol/kg)
[7] = Compound A 100 nmol/kg combined with Compound 1 (3.5 μmol/kg)

In the case of `N#Cc1cccc(-c2nc(-c3cccnc3)no2)c1` [Example 1, 3-(3-(pyridin-3-yl)-1,2,4-oxadiazol-5-yl)benzonitrile], the “return of grip force normalcy” value ([1]; Compound 1 alone, 3.5 μmol/kg i.p.) is reported as “produced no return of grip force normalcy”, the “alteration of PWLcarra” value ([2]; Compound 1 alone, up to 35 μmmol/kg, i.p.) is reported as “produced no alteration of PWLcarra” and the “alteration of PWT of the injured paw” value ([3]; Compound 1 alone, up to 35 μmol/kg, i.p.) is reported as “produced no alteration of PWT”.

With `Clc1ccc(OC[C@H]2CCN2)cn1` [Compound A, 5-[(2R)-azetidin-2-ylmethoxy]-2-chloropyridine] the “percent return of grip force to normalcy” value ([1]; Compound A 0.3 nmol/kg combined with Compound 1 (3.5 μmol/kg)) was 29±2%, the CGFbody ([1]; Compound A 0.3 nmol/kg/kg in the presence of Compound 1 (3.5 μmol/kg)) was 657 ± 21 g and the “percent return of grip force to normalcy” value ([1]; Compound A 1 nmol/kg combined with Compound 1 (3.5 μmol/kg)) was 50±3%. For the same molecule, the CGFbody ([1]; Compound A 1 nmol/kg/kg in the presence of Compound 1 (3.5 μmol/kg)) was 855 ± 28 g, the “percent return of grip force to normalcy” value ([1]; Compound A 3 nmol/kg combined with Compound 1 (3.5 μmol/kg)) was 66±5% and the CGFbody ([1]; Compound A 3 nmol/kg/kg in the presence of Compound 1 (3.5 μmol/kg)) was 971 ± 35 g. The “percent return of grip force to normalcy” value [1, 4] was 92±6%, the CGFbody ([1]; Compound A 10 nmol/kg/kg in the presence of Compound 1 (3.5 μmol/kg)) was 1243 ± 56 g and the CGFbody ([1]; Compound A alone, 1 nmol/kg) was 575 ± 37 g. The “percent return of grip force to normalcy” value ([1]; Compound A alone, 1 nmol/kg) was 20±4%, the CGFbody ([1]; Compound A alone, 3 nmol/kg) was 717 ± 64 g and the “percent return of grip force to normalcy” value ([1]; Compound A alone, 3 nmol/kg) was 35±6%. For the same molecule, the CGFbody ([1]; Compound A alone, 10 nmol/kg) was 992 ± 45 g, the “percent return of grip force to normalcy” value ([1]; Compound A alone, 10 nmol/kg) was 65±5% and the CGFbody ([1]; Compound A alone, 30 nmol/kg) was 1234 ± 37 g. For the same molecule, the “percent return of grip force to normalcy” value ([1]; Compound A alone, 30 nmol/kg) was 90±4%, the ED50 ([1]; Rattus norvegicus, Compound A alone, read-out: ED50 (return of grip force to normalcy)) was 0.0046 µmol/kg and the “leftward shift in the DRC of Compound A” value [1, 5] was 5 fold. For the same molecule, the “percent reversal of thermal hyperalgesia” value [2, 4] was 31±13%, the PWLcarra ([2]; Compound A 10 nmol/kg i.p. in the presence of Compound 1 (3.5 μmol/kg)) was 5.29 ± 0.91 s and the “percent reversal of thermal hyperalgesia” value [2, 6] was 46±10%. The PWLcarra ([2]; Compound A 30 nmol/kg i.p. in the presence of Compound 1 (3.5 μmol/kg)) was 6.35 ± 0.71 s, the “percent reversal of thermal hyperalgesia” value [2, 7] was 84±12% and the PWLcarra ([2]; Compound A 100 nmol/kg i.p. in the presence of Compound 1 (3.5 μmol/kg)) was 8.94 ± 0.79 s. For the same molecule, the “percent reversal of thermal hyperalgesia” value ([2]; Compound A alone, 100 nmol/kg) was 28±5%, the PWLcarra ([2]; Compound A alone, 100 nmol/kg i.p.) was 5.46 ± 0.36 s and the “percent reversal of thermal hyperalgesia” value ([2]; Compound A alone, 300 nmol/kg) was 74±9%. The PWLcarra ([2]; Compound A alone, 300 nmol/kg i.p.) was 8.80 ± 0.65 s, the “increase of the PWLcontra” value ([2]; Compound A and Compound 1 co-administered animals) was “not statistically significant” and the “increase of the PWLcontra” value ([2]; Compound A treated animals) was “not statistically significant”. For the same molecule, the ED50 ([2]; Rattus norvegicus, Compound A alone, read-out: ED50 (reversal of thermal hyperalgesia)) was 0.16 µmol/kg, the “leftward shift in the DRC of Compound A” value [2, 5] was 5 fold and the “percent reversal of mechanical allodynia” value [3, 4] was 22±14%. The PWT ([3]; Compound A 10 nmol/kg in the presence of Compound 1 (3.5 μmol/kg)) was 5.0 ± 1.9 g, the “percent reversal of mechanical allodynia” value [3, 6] was 54±16% and the PWT ([3]; Compound A 30 nmol/kg in the presence of Compound 1 (3.5 μmol/kg)) was 9.2 ± 2.1 g. For the same molecule, the “percent reversal of mechanical allodynia” value [3, 7] was 85±10%, the PWT ([3]; Compound A 100 nmol/kg in the presence of Compound 1 (3.5 μmol/kg)) was 13.1 ± 1.2 g and the PWT ([3]; Compound A alone, 100 nmol/kg) was 6.0 ± 1.0 g. The “percent reversal of mechanical allodynia” value ([3]; Compound A alone, 100 nmol/kg) was 25±8%, the PWT ([3]; Compound A alone, 300 nmol/kg) was 12.0 ± 1.6 g and the “percent reversal of mechanical allodynia” value ([3]; Compound A alone, 300 nmol/kg) was 75±12%. The ED50 ([3]; Rattus norvegicus, Compound A alone, read-out: ED50 (reversal of mechanical allodynia)) was 0.165 µmol/kg and the “leftward shift in the DRC of Compound A” value [3, 5] was 6 fold.
